Data from US20110165076A1, “NOVEL [F-18]- LABELLED L-GLUTAMIC ACID AND L-GLUTAMINE DERIVATIVES (I), USE THEREOF AND METHOD FOR THEIR PRODUCTION” (BAYER SCHERING PHARMA AKTIENGESELLSCHAFT, priority 2008, published 2011).

What was measured:
A549 tumour = assay: PET/CT imaging in mice bearing A549 tumours; format: in vivo; conditions: 60 min after i.v. 10 MBq, 20 min acquisition
H460 tumour = assay: PET in rats bearing H460 tumours; format: in vivo; conditions: 80 min after i.v. 18 MBq, 20 min acquisition
[1] = tested on: A549 and H460 tumour cells; assay: Cell uptake of F-18-labelled glutamic acid derivative in tumour cells
Source text: Following labelling with F-18, (2S,4S)-2-amino-4-(3-[F-18]fluoropropyl)pentanedioic acid was examined in cell experiments with A549 and H460 tumour cells (both human non-small-cell bronchial carcinoma cell lines).

A549 tumours = assay: Organ distribution experiment in mice bearing A549 tumours; format: in vivo; conditions: for % dose/g adrenals / % dose/g blood / % dose/g bone / % dose/g brain / % dose/g fat / % dose/g heart / % dose/g intestine / % dose/g kidney / % dose/g liver / % dose/g lung / % dose/g muscle / % dose/g ovary / % dose/g pancreas / % dose/g skin / % dose/g spleen / % dose/g stomach / % dose/g tail / % dose/g thyroid / % dose/g tumour / % dose/g uterus: i.v. 250 kBq
A549 cells = assay: Competition cell experiment: uptake of tracer 4R/S-[F-18]F-L-glutamic acid in presence of competitor; format: cell-based, human; conditions: competitor 1 mM; for % Tracer uptake: A549 cells, 10 min incubation with 0.250 MBq 4R/S-[F-18]F-L-Glu in PBS buffer; for inhibition of tracer uptake (competition): tracer 4R/S-[F-18]F-L-glutamic acid
Experimental: The uptake of the glutamic acid derivatives according to the invention into tumour cells was investigated in cell experiments. Here, the uptake of a radiolabelled glutamic acid derivative (4R/S—[F-18]F-L-glutamic acid) was examined in the presence of the compounds according to the invention and control susbtances (competition experiments). The compounds according to the invention were employed in excess (1 mM) over 4R/S—[F-18]F-L-glutamic acid (tracer).

Which “uptake into the A549 tumour (PET/CT image analysis)” value (A549 tumour) does the source give for `N[C@@H](C[C@H](CCC[18F])C(=O)O)C(=O)O` here?
Its value is “high uptake”.

And the “uptake into the H460 tumour (PET image analysis)” value (H460 tumour)?
Its value is “high uptake”.

What about the “cellular uptake (FIG. 2)” value ([1]; after 30 min) of the same molecule?
Its value is 840 000 cpm/100 000 cells.

And the cellular uptake ([1]; after 30 min of incubation, A549 and H460 tumour cells)?
The cellular uptake was 899 000 cpm per 100 000 cells.

What about the “accumulation in tumour cells compared to [F-18]FDG” value ([1]; after 30 minutes of incubation) of the same molecule?
The value was “accumulates to a greater degree”.

What about the “% dose/g adrenals” value (A549 tumours; 0.25 h) of the same molecule?
The value was 0.94 % dose/g.

What about the “% dose/g adrenals” value (A549 tumours; 0.5 h) of the same molecule?
Its value is 0.78 % dose/g.

What about the “% dose/g adrenals” value (A549 tumours; 1.0 h) of the same molecule?
The value was 0.27 % dose/g.

What about the “% dose/g adrenals” value (A549 tumours; 2.00 h) of the same molecule?
The value was 0.20 % dose/g.

And the “% dose/g blood” value (A549 tumours; 0.25 h)?
Its value is 0.72 % dose/g.

And the “% dose/g blood” value (A549 tumours; 0.5 h)?
Its value is 0.35 % dose/g.

And the “% dose/g blood” value (A549 tumours; 1.0 h)?
Its value is 0.13 % dose/g.

What about the “% dose/g blood” value (A549 tumours; 2.00 h) of the same molecule?
The value was 0.07 % dose/g.

And the “% dose/g bone” value (A549 tumours; 0.25 h)?
The value was 0.44 % dose/g.

What about the “% dose/g bone” value (A549 tumours; 0.5 h) of the same molecule?
Its value is 0.37 % dose/g.

And the “% dose/g bone” value (A549 tumours; 1.0 h)?
Its value is 0.20 % dose/g.

What about the “% dose/g bone” value (A549 tumours; 2.00 h) of the same molecule?
Its value is 0.20 % dose/g.

And the “uptake into the bones” value (A549 tumours; bones, at all points in time)?
Its value is less than 0.5 % ID/g.

What about the “% dose/g brain” value (A549 tumours; 0.25 h) of the same molecule?
The value was 0.09 % dose/g.

And the “% dose/g brain” value (A549 tumours; 0.5 h)?
The value was 0.10 % dose/g.

And the “% dose/g brain” value (A549 tumours; 1.0 h)?
Its value is 0.06 % dose/g.

What about the “% dose/g brain” value (A549 tumours; 2.00 h) of the same molecule?
Its value is 0.05 % dose/g.

And the “% dose/g fat” value (A549 tumours; 0.25 h)?
The value was 0.31 % dose/g.

What about the “% dose/g fat” value (A549 tumours; 0.5 h) of the same molecule?
The value was 0.08 % dose/g.

What about the “% dose/g fat” value (A549 tumours; 1.0 h) of the same molecule?
Its value is 0.04 % dose/g.

What about the “% dose/g fat” value (A549 tumours; 2.00 h) of the same molecule?
The value was 0.09 % dose/g.

What about the “% dose/g heart” value (A549 tumours; 0.25 h) of the same molecule?
The value was 0.42 % dose/g.

What about the “% dose/g heart” value (A549 tumours; 0.5 h) of the same molecule?
The value was 0.20 % dose/g.

What about the “% dose/g heart” value (A549 tumours; 1.0 h) of the same molecule?
The value was 0.08 % dose/g.

And the “% dose/g heart” value (A549 tumours; 2.00 h)?
Its value is 0.05 % dose/g.

What about the “% dose/g intestine” value (A549 tumours; 0.25 h) of the same molecule?
The value was 1.27 % dose/g.

What about the “% dose/g intestine” value (A549 tumours; 0.5 h) of the same molecule?
Its value is 0.90 % dose/g.

And the “% dose/g intestine” value (A549 tumours; 1.0 h)?
Its value is 0.52 % dose/g.

And the “% dose/g intestine” value (A549 tumours; 2.00 h)?
Its value is 0.32 % dose/g.

And the “% dose/g kidney” value (A549 tumours; 0.25 h)?
Its value is 14.38 % dose/g.

What about the “% dose/g kidney” value (A549 tumours; 0.5 h) of the same molecule?
Its value is 6.44 % dose/g.

What about the “% dose/g kidney” value (A549 tumours; 1.0 h) of the same molecule?
Its value is 2.01 % dose/g.

And the “% dose/g kidney” value (A549 tumours; 2.00 h)?
Its value is 0.80 % dose/g.

And the uptake in kidneys (A549 tumours; kidneys, after 0.25 h)?
Its uptake in kidneys is 14.4 % ID/g.

What about the activity in kidneys (A549 tumours; kidneys, after 1 h) of the same molecule?
The activity in kidneys was 2 % ID/g.

What about the “% dose/g liver” value (A549 tumours; 0.25 h) of the same molecule?
Its value is 0.55 % dose/g.

And the “% dose/g liver” value (A549 tumours; 0.5 h)?
The value was 0.46 % dose/g.

What about the “% dose/g liver” value (A549 tumours; 1.0 h) of the same molecule?
The value was 0.21 % dose/g.

What about the “% dose/g liver” value (A549 tumours; 2.00 h) of the same molecule?
The value was 0.11 % dose/g.

What about the “% dose/g lung” value (A549 tumours; 0.25 h) of the same molecule?
Its value is 1.35 % dose/g.

What about the “% dose/g lung” value (A549 tumours; 0.5 h) of the same molecule?
The value was 1.08 % dose/g.

And the “% dose/g lung” value (A549 tumours; 1.0 h)?
Its value is 0.50 % dose/g.

And the “% dose/g lung” value (A549 tumours; 2.00 h)?
Its value is 0.29 % dose/g.

What about the “% dose/g muscle” value (A549 tumours; 0.25 h) of the same molecule?
The value was 0.17 % dose/g.

What about the “% dose/g muscle” value (A549 tumours; 0.5 h) of the same molecule?
Its value is 0.09 % dose/g.

And the “% dose/g muscle” value (A549 tumours; 1.0 h)?
The value was 0.05 % dose/g.

What about the “% dose/g muscle” value (A549 tumours; 2.00 h) of the same molecule?
Its value is 0.03 % dose/g.

What about the “% dose/g ovary” value (A549 tumours; 0.25 h) of the same molecule?
Its value is 1.82 % dose/g.

What about the “% dose/g ovary” value (A549 tumours; 0.5 h) of the same molecule?
The value was 1.13 % dose/g.

And the “% dose/g ovary” value (A549 tumours; 1.0 h)?
Its value is 0.94 % dose/g.

What about the “% dose/g ovary” value (A549 tumours; 2.00 h) of the same molecule?
Its value is 0.28 % dose/g.

What about the “% dose/g pancreas” value (A549 tumours; pancreas, 0.25 h) of the same molecule?
Its value is 13.64 % dose/g.

And the “% dose/g pancreas” value (A549 tumours; pancreas, 0.5 h)?
The value was 8.51 % dose/g.

And the “% dose/g pancreas” value (A549 tumours; pancreas, 1.0 h)?
Its value is 3.99 % dose/g.

What about the “% dose/g pancreas” value (A549 tumours; pancreas, 2.00 h) of the same molecule?
The value was 1.35 % dose/g.

And the uptake in pancreas (A549 tumours; pancreas, after 0.25 h)?
Its uptake in pancreas is 13.6 % ID/g.

And the activity in pancreas (A549 tumours; pancreas, after 1 h)?
The activity in pancreas was 4 % ID/g.

And the “% dose/g skin” value (A549 tumours; 0.25 h)?
Its value is 1.71 % dose/g.

And the “% dose/g skin” value (A549 tumours; 0.5 h)?
The value was 2.26 % dose/g.

And the “% dose/g skin” value (A549 tumours; 1.0 h)?
The value was 1.80 % dose/g.

And the “% dose/g skin” value (A549 tumours; 2.00 h)?
The value was 1.01 % dose/g.

What about the “% dose/g spleen” value (A549 tumours; 0.25 h) of the same molecule?
Its value is 2.87 % dose/g.

What about the “% dose/g spleen” value (A549 tumours; 0.5 h) of the same molecule?
The value was 1.76 % dose/g.

What about the “% dose/g spleen” value (A549 tumours; 1.0 h) of the same molecule?
Its value is 1.02 % dose/g.

And the “% dose/g spleen” value (A549 tumours; 2.00 h)?
The value was 0.53 % dose/g.

And the “% dose/g stomach” value (A549 tumours; 0.25 h)?
Its value is 3.25 % dose/g.

And the “% dose/g stomach” value (A549 tumours; 0.5 h)?
Its value is 2.64 % dose/g.

What about the “% dose/g stomach” value (A549 tumours; 1.0 h) of the same molecule?
The value was 0.96 % dose/g.

What about the “% dose/g stomach” value (A549 tumours; 2.00 h) of the same molecule?
Its value is 0.39 % dose/g.

What about the “% dose/g tail” value (A549 tumours; 0.25 h) of the same molecule?
The value was 2.74 % dose/g.

What about the “% dose/g tail” value (A549 tumours; 0.5 h) of the same molecule?
The value was 3.45 % dose/g.

What about the “% dose/g tail” value (A549 tumours; 1.0 h) of the same molecule?
The value was 1.19 % dose/g.

What about the “% dose/g tail” value (A549 tumours; 2.00 h) of the same molecule?
Its value is 1.69 % dose/g.

And the “% dose/g thyroid” value (A549 tumours; 0.25 h)?
The value was 1.17 % dose/g.

What about the “% dose/g thyroid” value (A549 tumours; 0.5 h) of the same molecule?
Its value is 1.31 % dose/g.

What about the “% dose/g thyroid” value (A549 tumours; 1.0 h) of the same molecule?
The value was 0.77 % dose/g.

What about the “% dose/g thyroid” value (A549 tumours; 2.00 h) of the same molecule?
Its value is 0.42 % dose/g.

And the “% dose/g tumour” value (A549 tumours; tumour, 0.25 h)?
The value was 2.42 % dose/g.

What about the “injected dose per g in the tumour” value (A549 tumours; tumour, 0.25 h after injection) of the same molecule?
The value was 2.4 % ID/g.

What about the “% dose/g tumour” value (A549 tumours; tumour, 0.5 h) of the same molecule?
Its value is 1.82 % dose/g.

And the “% dose/g tumour” value (A549 tumours; tumour, 1.0 h)?
Its value is 1.58 % dose/g.

What about the “% dose/g tumour” value (A549 tumours; tumour, 2.00 h) of the same molecule?
Its value is 0.97 % dose/g.

What about the tumour uptake (A549 tumours; tumour, after 1 h) of the same molecule?
The tumour uptake was 1.6 % ID/g.

What about the “% dose/g uterus” value (A549 tumours; 0.25 h) of the same molecule?
The value was 1.30 % dose/g.

What about the “% dose/g uterus” value (A549 tumours; 0.5 h) of the same molecule?
Its value is 1.27 % dose/g.

And the “% dose/g uterus” value (A549 tumours; 1.0 h)?
Its value is 0.93 % dose/g.

What about the “% dose/g uterus” value (A549 tumours; 2.00 h) of the same molecule?
The value was 0.37 % dose/g.

`N[C@@H](C[C@H](CCCF)C(=O)O)C(=O)O` [4S-(3-fluoropropyl)-L-Glu, (2S,4S)-2-Amino-4-(3-fluoropropyl)pentanedioic acid] was tested. Which “% Tracer uptake” value (A549 cells) did it give?
The value was 5.4%.

What about the “inhibition of tracer uptake (competition)” value (A549 cells) of the same molecule?
Its value is greater than 94%.

Which results are given for `N[C@@H](C[C@@H](O)C(=O)O)C(=O)O` [(4R)-hydroxy-L-Glu]?
% Tracer uptake (A549 cells): 29.6%; inhibition of tracer uptake (competition) (A549 cells): 70%

Which results are given for `C[C@H](C[C@H](N)C(=O)O)C(=O)O` [(4R)-methyl-L-Glu]?
% Tracer uptake (A549 cells): 33.5%; inhibition of tracer uptake (competition) (A549 cells): 64%
